# Assay results: patent publication US11059808B2, “Substituted phenylpyrrolecarboxamides with therapeutic activity in HIV” (New York Blood Center, Inc., priority 2014, dated 2021)
# How the values were obtained:
# Format in all cases: cell-based
# [1] = Cytotoxicity in TZM-bl cells (XTT); details: human, XTT, 3 days
# Description: (§1) The cytotoxicity of test compounds in TZM-bl cells was also measured by the XTT method described previously^7. […] The soluble intracellular formazan was quantitated colorimetrically at 450 nm 4 h later. The percent of cytotoxicity and the CC50 values were calculated as above. (See Table 4)
# [2] = test system: HIV-1 pseudovirus pseudotyped with HXB2 Env; experiment: microbe, parasite or virus in culture; details: single cycle assay, TZM-bl cells infected with HIV-1 pseudovirus pseudotyped with HXB2 Env;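 further: endpoint is IC50 for inhibition of pseudovirus infection of TZM-bl cells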
# [3] = test system: TZM-bl cells; experiment: Cytotoxicity in TZM-bl cells (XTT); details: XTT, 3 days
# Description: as §1
# [4] = Human immunodeficiency virus 1, HXB2, TZM-bl
Structure (SMILES),CC50 at 3 days [1] [µM],CC50 [3] [µM],other results
"Cc1ccc(-c2ccc(C(=O)NC(CN)c3nc(C)c(CO)s3)[nH]2)cc1F (single isomer, unassigned) [Compound 43]",≥ 34,,
"Cc1nc(C(NC(=O)c2ccc(-c3ccc(Cl)cc3)[nH]2)C2CCCCN2)[nH]c1CO (single isomer, unassigned) [Compound 33]",28 ± 0.5,,
N=C(N)Nc1ccc(CC(NC(=O)c2ccc(-c3ccc(Cl)cc3)[nH]2)C(=O)N2CCOCC2)cc1 (stereo not shown) [Compound 3],> 36,,
"Cc1ccc(-c2ccc(C(=O)NC(CCN(C)C)c3nc(C)c(CO)s3)[nH]2)cc1F (single isomer, unassigned) [Compound 72]",36.4 ± 1,,
Cc1nc(C(NC(=O)c2ccc(-c3ccc(Cl)cc3)[nH]2)C2CCCCN2)sc1CCCO (stereo not shown) [Compound 32],13.7 ± 1,,
"Cc1nc(C(NC(=O)c2ccc(-c3ccc(Cl)c(F)c3)[nH]2)C2CCCCN2)[nH]c1CO (single isomer, unassigned) [Compound 35]",25 ± 0.5,,
Cc1n[nH]c(C)c1CNC(=O)c1ccc(-c2ccc(Cl)cc2)[nH]1 [Compound 11],~60,,
"Cc1ccc(-c2ccc(C(=O)NC(c3nc(C)c(CCCO)s3)C3CCCCN3)[nH]2)cc1F (single isomer, unassigned) [Compound 30]",17 ± 0.7,,
Cc1nccn1Cc1ccc(CNC(=O)c2ccc(-c3ccc(Cl)cc3)[nH]2)o1 [Compound 12],22 ± 0.4,,
"Cc1nc(C(CNC(=N)N)NC(=O)c2ccc(-c3ccc(Cl)cc3)[nH]2)sc1CO (single isomer, unassigned) [Compound 45]",> 37,,
"Cc1ccc(-c2ccc(C(=O)NC(c3nc(C)c(CO)s3)C3CCCCN3)[nH]2)cc1F (single isomer, unassigned) [Compound 22]",≥ 36,,
N=C(N)NCCCC(NC(=O)c1ccc(-c2ccc(Cl)cc2)[nH]1)C(=O)NN1CCOCC1 (stereo not shown) [Compound 9],> 40,,
"Cc1ccc(-c2ccc(C(=O)NC(c3nc(C)c(CCO)s3)C3CCCCN3)[nH]2)cc1F (single isomer, unassigned) [Compound 24]",28.8 ± 1,,
O=C(NC(c1ccccc1)c1ccc[nH]1)c1ccc(-c2ccc(Cl)cc2)[nH]1 (stereo not shown) [Compound 1],> 53,,
"Cc1ccc(-c2ccc(C(=O)NC(CNC(=N)N)c3nc(C)c(CO)s3)[nH]2)cc1F (single isomer, unassigned) [Compound 49]",> 37,,
"Cc1nc(C(CNC(=N)N)NC(=O)c2ccc(-c3ccc(Cl)c(F)c3)[nH]2)sc1CO (single isomer, unassigned) [Compound 48]",> 36,,
CS(=O)(=O)NCCNC(=O)C(CCCNC(=N)N)NC(=O)c1ccc(-c2ccc(Cl)cc2)[nH]1 (stereo not shown) [Compound 6],> 37,,
"CC(=O)NCC(NC(=O)c1ccc(-c2ccc(Cl)c(F)c2)[nH]1)c1nc(C)c(COC(C)=O)s1 (single isomer, unassigned) [Compound 66]",> 40,,
"Cc1nc(C(CNC(C)C)NC(=O)c2ccc(-c3ccc(Cl)cc3)[nH]2)sc1CO (single isomer, unassigned) [Compound 107]",,28.5 ± 3.5,"IC50 [2, 4]: 4.2 ± 0.3 µM"
"Cc1ccc(-c2ccc(C(=O)NC(CN(C)C)c3nc(C)c(CO)s3)[nH]2)cc1F (single isomer, unassigned) [Compound 65]",,> 40,IC50 [2]: 6.3 ± 1.8 µM

Structure (SMILES),CC50 at 3 days [1] [µM],CC50 [3] [µM],other results
N=C(N)NCCCC(NC(=O)c1ccc(-c2ccccc2)[nH]1)C(=O)NCCO (stereo not shown) [Compound 5],> 47,,
"Cc1nc(C(CCN)NC(=O)c2ccc(-c3ccc(Cl)cc3)[nH]2)sc1CO (single isomer, unassigned) [Compound 89]",,41 ± 1,IC50 [2]: 4 ± 0.3 µM
"Cc1nc(C(CN)NC(=O)c2ccc(-c3ccc(Cl)c(F)c3)[nH]2)sc1CO (single isomer, unassigned) [Compound 51]",~28,,
CS(=O)(=O)NCCNC(=O)C(CCCNC(=N)N)NC(=O)c1ccc(-c2ccccc2)[nH]1 (stereo not shown) [Compound 7],> 43,,
"Cc1nc(C(CCN(C)C)NC(=O)c2ccc(-c3ccc(Cl)cc3)[nH]2)sc1CO (single isomer, unassigned) [Compound 77]",,40.2 ± 3,IC50 [2]: 10.4 ± 2 µM
"Cc1ccc(-c2ccc(C(=O)NC(c3ncc(CO)s3)C(C)(C)N)[nH]2)cc1F (single isomer, unassigned) [Compound 126]",,18.1 ± 0.7,IC50 [2]: 0.54 ± 0.01 µM
"Cc1ccc(-c2ccc(C(=O)NC(CCN)c3nc(C)c(CO)s3)[nH]2)cc1F (single isomer, unassigned) [Compound 85]",,43.8 ± 1.6,IC50 [2]: 4.2 ± 1.7 µM
"Cc1ccc(-c2ccc(C(=O)NC(CCN(C)C)c3nc(C)c(CO)s3)[nH]2)cc1F (single isomer, unassigned) [Compound 73]",,37.1 ± 5.7,IC50 [2]: 6.6 ± 0.2 µM
"Cc1nc(C(CN(C)C)NC(=O)c2ccc(-c3ccc(Cl)c(F)c3)[nH]2)sc1CO (single isomer, unassigned) [Compound 67]",~29,,
"Cc1ccc(-c2ccc(C(=O)NC(c3nc(C)c(CO)s3)C3CCCCN3)[nH]2)cc1F (single isomer, unassigned) [Compound 23]",,≥ 36,IC50 [2]: 3.8 ± 0.3 µM
NS(=O)(=O)c1ccc(CCNC(=O)c2ccc(-c3ccc(Cl)cc3)[nH]2)cc1 [Compound 14],> 50,,
CN1CCN(NC(=O)C(CCCNC(=N)N)NC(=O)c2ccc(-c3ccc(Cl)cc3)[nH]2)CC1 (stereo not shown) [Compound 8],> 42,,
CCN(CC)Cc1ccc(OC)c(CNC(=O)c2ccc(-c3ccc(Cl)cc3)[nH]2)c1 [Compound 13],14.2 ± 1,,
"CNCC(NC(=O)c1ccc(-c2ccc(Cl)cc2)[nH]1)c1nc(C)c(CO)s1 (single isomer, unassigned) [Compound 58]",~37,,
"Cc1cc(-c2ccc(Cl)cc2)[nH]c1C(=O)NC(CN)c1nc(C)c(CO)s1 (single isomer, unassigned) [Compound 70]",,26.4 ± 0.7,IC50 [2]: 1.1 ± 0.3 µM
"Cc1nc(C(NC(=O)c2ccc(-c3ccc(Cl)c(F)c3)[nH]2)C2CCCCN2)sc1CO (single isomer, unassigned) [Compound 20]",15.2 ± 0.2,,
"NCC(NC(=O)c1ccc(-c2cc(F)c(Cl)c(F)c2)[nH]1)c1ncc(CO)s1 (single isomer, unassigned) [Compound 119]",18 ± 0.5,,
"Cc1ccc(-c2ccc(C(=O)NC(c3nc(C)c(CO)[nH]3)C3CCCCN3)[nH]2)cc1F (single isomer, unassigned) [Compound 37]",30 ± 0.3,,
"Cc1nc(C(NC(=O)c2ccc(-c3ccc(Cl)c(F)c3)[nH]2)C2CCCCN2)sc1CCCO (single isomer, unassigned) [Compound 31]",8.2 ± 0.3,,
N=C(N)NCCCC(NC(=O)c1ccc(-c2ccc(Cl)cc2)[nH]1)C(=O)NCCO (stereo not shown) [Compound 4],> 44,,

Structure (SMILES),CC50 at 3 days [1] [µM],CC50 [3] [µM],other results
"CNCC(NC(=O)c1ccc(-c2ccc(Cl)c(F)c2)[nH]1)c1ncc(CO)s1 (single isomer, unassigned) [Compound 116]",,17.4 ± 0.4,IC50 [2]: 1.4 ± 0.05 µM
"Cc1nc(C(CN)NC(=O)c2cnc(-c3ccc(Cl)cc3)[nH]2)sc1CO (single isomer, unassigned) [Compound 93]",> 51,,
"Cc1nc(C(NC(=O)c2ccc(-c3ccc(Cl)c(F)c3)[nH]2)C2CCCCN2)sc1CO (single isomer, unassigned) [Compound 21]",,17.4 ± 1.6,IC50 [2]: 3.2 ± 0.5 µM
"COc1cc(C(=O)NC(CN)c2nc(C)c(CO)s2)[nH]c1-c1ccc(Cl)cc1 (single isomer, unassigned) [Compound 106]",,22.2 ± 2.5,IC50 [2]: 12.4 ± 2.5 µM
"Cc1nc(C(CCN)NC(=O)c2ccc(-c3ccc(Cl)c(F)c3)[nH]2)sc1CO (single isomer, unassigned) [Compound 86]",22.9 ± 0.6,,
"Cc1nc(C(CCN(C)C)NC(=O)c2ccc(-c3ccc(Cl)c(F)c3)[nH]2)sc1CO (single isomer, unassigned) [Compound 75]",,21.3 ± 0.6,IC50 [2]: 1.5 ± 0.3 µM
"Cc1nc(C(CNC(=N)N)NC(=O)c2ccc(-c3ccc(Cl)c(F)c3)[nH]2)sc1CO (single isomer, unassigned) [Compound 47]",,> 36,IC50 [2]: ≥ 20 µM
"Cc1nc(C(CCN(C)C)NC(=O)c2ccc(-c3ccc(Cl)cc3)[nH]2)sc1CO (single isomer, unassigned) [Compound 76]",21.7 ± 1,,
"Cc1ccc(-c2ccc(C(=O)NC(c3nc(C)c(CCO)s3)C3CCCCN3)[nH]2)cc1F (single isomer, unassigned) [Compound 25]",,15.3 ± 0.2,IC50 [2]: 6.3 ± 0.3 µM
N=C(N)NCCCC(NC(=O)c1ccc(-c2ccccc2)[nH]1)C(=O)NN1CCOCC1 (stereo not shown) [Compound 10],> 43,,
"Cc1nc(C(CN)NC(=O)c2ncc(-c3ccc(Cl)cc3)[nH]2)sc1CO (single isomer, unassigned) [Compound 95]",> 51,,
"CNCCC(NC(=O)c1ccc(-c2ccc(Cl)cc2)[nH]1)c1nc(C)c(CO)s1 (single isomer, unassigned) [Compound 83]",,23 ± 0.6,IC50 [2]: 1.7 ± 0.2 µM
Nc1nc(CNC(=O)c2ccc(-c3ccc(Cl)cc3)[nH]2)n[nH]1 [Compound 2],> 63,,
NCCNC(=O)c1ccc(-c2ccc(Cl)c(F)c2)[nH]1 [Compound 71],19.4 ± 0.9,,
"Cc1nc(C(CN)NC(=O)c2ccc(-c3ccc(Cl)cc3)[nH]2)sc1CO (single isomer, unassigned) [Compound 39]",≥ 34,,
"Cc1nc(C(CN(C)C)NC(=O)c2ccc(-c3ccc(Cl)c(F)c3)[nH]2)sc1CO (single isomer, unassigned) [Compound 68]",,~29,IC50 [2]: 7.2 ± 3 µM
"CNCC(NC(=O)c1ccc(-c2ccc(Cl)c(F)c2)[nH]1)c1ncc(CO)s1 (single isomer, unassigned) [Compound 115]",,17.3 ± 0.5,"IC50 [2, 4]: 0.95 ± 0.03 µM"
"Cc1nc(C(NC(=O)c2ccc(-c3ccc(Cl)c(F)c3)[nH]2)C2CCCCN2)sc1CCO (single isomer, unassigned) [Compound 26]",16.1 ± 0.2,,
